According to US9499550B2 (BRISTOL-MYERS SQUIBB COMPANY, priority 2012, dated 2016):
Like-named read-outs stand apart in the source and are kept apart here.

What was measured:
[1] = system: HCV genotype 1a (H77 strain) replicon in HUH-7 cells; experiment: HCV replicon luciferase reporter assay, genotype 1a; format: cell-based; details: Hepatitis C virus, Huh-7, 72 h, 3 days incubation, read-out: LE_1a (EC50, range)
In short: (§1)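 Replicon inhibition for both genotypes was measured as Renilla luciferase signal (EnduRen, 7.5 μM final, 2 h) after 3-day, 37° C exposure of replicon-bearing HUH-7 cells in 4% FCS DMEM, 0.5% DMSO. The 1b construct carries S1179I; the 1a H77 construct carries P1496L and S2204I. Twenty-point, 3-fold dilutions were fitted four-parametrically for EC50, and CC50 was taken from multiplexed Cell Titer-Blue.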

[2] = system: HCV genotype 1b (Con1) replicon in HUH-7 cells; experiment: HCV replicon luciferase reporter assay, genotype 1b; format: cell-based; details: Hepatitis C virus, Huh-7, 72 h, 3 days incubation, read-out: LE_1b (EC50, range)
In short: as §1

[3] = HCV genotype 1a replicon luciferase
[4] = HCV genotype 1b replicon luciferase
[5] = HCV genotype 1a replicon luciferase assay, range class
[6] = HCV genotype 1b replicon luciferase assay, range class
[7] = GETYPE1A, HCV genotype 1a replicon luciferase
[8] = GETYPE1B, HCV genotype 1b replicon luciferase

Row | SMILES | EC50 [1, 3] [nM] | EC50 [2, 4] [nM] | EC50 [1, 7] [nM] | EC50 [2, 8] [nM] | other results
1 | C[C@@H]1CC/C=C\[C@@H]2C[C@@]2(C(=O)NS(=O)(=O)C2CC2)NC(=O)[C@@H]2C[C@@H](Oc3nc4ccccc4c4ccccc34)CN2C(=O)[C@@H](NC(=O)OC(C)(C)C)[C@H](C)C1 [Compound 5183, tert-butyl ((2R,6S,7R,9R,13aS,14aR,16aS,Z)-14a-((cyclopropylsulfonyl)carbamoyl)-7,9-dimethyl-5,16-dioxo-2-(phenanthridin-6-yloxy)-1,2,3,5,6,7,8,9,10,11,13a,14,14a,15,16,16a-hexadecahydrocyclopropa[e]pyrrolo[1,2-a][1,4]diazacyclopentadecin-6-yl)carbamate] | < 5.46 | < 5.46 |  |  | 
2 | COc1ccc2c(O[C@@H]3C[C@H]4C(=O)N[C@]5(C(=O)NS(=O)(=O)C6(C)CC6)C[C@H]5/C=C\CC[C@@H](C)C[C@@H](C)[C@H](NC(=O)OC(C)(C)C)C(=O)N4C3)nc(N3CCOCC3)cc2c1 [Compound 3089, tert-butyl ((2R,6S,7R,9R,13aS,14aR,16aS,Z)-2-((6-methoxy-3-morpholinoisoquinolin-1-yl)oxy)-7,9-dimethyl-14a-(((1-methylcyclopropyl)sulfonyl)carbamoyl)-5,16-dioxo-1,2,3,5,6,7,8,9,10,11,13a,14,14a,15,16,16a-hexadecahydrocyclopropa[e]pyrrolo[1,2-a][1,4]diazacyclopentadecin-6-yl)carbamate] |  |  |  |  | EC50 [1, 5]: < 5.46 nM; EC50 [2, 6]: < 5.46 nM
3 | COc1cc(F)cc2c(O[C@@H]3C[C@H]4C(=O)N[C@]5(C(=O)NS(=O)(=O)C6(CF)CC6)C[C@H]5/C=C\CC[C@@H](C)C[C@@H](C)[C@H](NC(=O)OC(C)(C)C)C(=O)N4C3)nccc12 [Compound 3174, tert-butyl ((2R,6S,7R,9R,13aS,14aR,16aS,Z)-2-((7-fluoro-5-methoxyisoquinolin-1-yl)oxy)-14a-(((1-(fluoromethyl)cyclopropyl)sulfonyl)carbamoyl)-7,9-dimethyl-5,16-dioxo-1,2,3,5,6,7,8,9,10,11,13a,14,14a,15,16,16a-hexadecahydrocyclopropa[e]pyrrolo[1,2-a][1,4]diazacyclopentadecin-6-yl)carbamate] |  |  |  |  | EC50 [1, 5]: < 5.46 nM; EC50 [2, 6]: < 5.46 nM
4 | COCCOc1cnc(O[C@@H]2C[C@H]3C(=O)N[C@]4(C(=O)NS(=O)(=O)C5(C)CC5)C[C@H]4/C=C\CC[C@H](C)C[C@@H](C)[C@H](NC(=O)OC(C)(C)C)C(=O)N3C2)c2ccc(OC)cc12 [Compound 1152, tert-butyl ((2R,6S,7R,9S,13aS,14aR,16aS,Z)-2-((6-methoxy-4-(2-methoxyethoxyl)isoquinolin-1-yl)oxy)-7,9-dimethyl-14a-(((1-methylcyclopropyl)sulfonyl)carbamoyl)-5,16-dioxo-1,2,3,5,6,7,8,9,10,11,13a,14,14a,15,16,16a-hexadecahydrocyclopropa[e]pyrrolo[1,2-a][1,4]diazacyclopentadecin-6-yl)carbamate] |  |  |  |  | EC50 [1, 5]: < 5.46 nM; EC50 [2, 6]: < 5.46 nM
5 | COc1cc2ccnc(O[C@@H]3C[C@H]4C(=O)N[C@]5(C(=O)NS(=O)(=O)C6(F)CC6)C[C@H]5/C=C\CC[C@@H](C)C[C@@H](C)[C@H](NC(=O)OC(C)(C)C(F)(F)F)C(=O)N4C3)c2cc1F [Compound 4069] |  |  | < 5.46 | < 5.46 | 
6 | COc1ccc2nc(O[C@@H]3C[C@H]4C(=O)N[C@]5(C(=O)NS(=O)(=O)C6(CF)CC6)C[C@H]5/C=C\CC[C@@H](C)C[C@@H](C)[C@H](NC(=O)OC(C)(C)C(F)(F)F)C(=O)N4C3)c(C)nc2c1 [Compound 4107] |  |  | < 5.46 | < 5.46 | 
7 | CCCOc1cc2c(Cl)cccc2c(O[C@@H]2C[C@H]3C(=O)N[C@]4(C(=O)NS(=O)(=O)C5(C)CC5)C[C@H]4/C=C\CC[C@H](C)C[C@@H](C)[C@H](NC(=O)O[C@H](C)C(F)(F)F)C(=O)N3C2)n1 [Compound 1079, (R)-1,1,1-trifluoropropan-2-yl ((2R,6S,7R,9S,13aS,14aR,16aS,Z)-2-((5-chloro-3-propoxyisoquinolin-1-yl)oxy)-7,9-dimethyl-14a-(((1-methylcyclopropyl)sulfonyl)carbamoyl)-5,16-dioxo-1,2,3,5,6,7,8,9,10,11,13a,14,14a,15,16,16a-hexadecahydrocyclopropa[e]pyrrolo[1,2-a][1,4]diazacyclopentadecin-6-yl)carbamate] |  |  |  |  | EC50 [1, 5]: 4.82 to 103 nM; EC50 [2, 6]: < 5.46 nM
8 | C[C@@H]1CC/C=C\[C@@H]2C[C@@]2(C(=O)NS(=O)(=O)C2(CF)CC2)NC(=O)[C@@H]2C[C@@H](Oc3nccc4c5c(ccc34)OCCO5)CN2C(=O)[C@@H](NC(=O)OC(C)(C)C(C)(F)F)[C@H](C)C1 [Compound 5342] |  |  | < 5.46 | < 5.46 | 
9 | COc1cc2ccnc(O[C@@H]3C[C@H]4C(=O)N[C@]5(C(=O)NS(=O)(=O)C6(C)CC6)C[C@H]5/C=C\CC[C@@H](C)C[C@@H](C)[C@H](NC(=O)OC(C)(C)C)C(=O)N4C3)c2cc1OC [Compound 5379, tert-butyl ((2R,6S,7R,9R,13aS,14aR,16aS,Z)-2-((6,7-dimethoxyisoquinolin-1-yl)oxy)-7,9-dimethyl-14a-(((1-methylcyclopropyl)sulfonyl)carbamoyl)-5,16-dioxo-1,2,3,5,6,7,8,9,10,11,13a,14,14a,15,16,16a-hexadecahydrocyclopropa[e]pyrrolo[1,2-a][1,4]diazacyclopentadecin-6-yl)carbamate] | 1.01 to 5 | 1.01 to 5 |  |  | 
10 | CCOc1nnc(O[C@@H]2C[C@H]3C(=O)N[C@]4(C(=O)NS(=O)(=O)C5(C)CC5)C[C@H]4/C=C\CC[C@@H](C)C[C@@H](C)[C@H](NC(=O)OC(C)(C)C)C(=O)N3C2)c2ccccc12 [Compound 5029, tert-butyl ((2R,6S,7R,9R,13aS,14aR,16aS,Z)-2-((4-ethoxyphthalazin-1-yl)oxy)-7,9-dimethyl-14a-(((1-methylcyclopropyl)sulfonyl)carbamoyl)-5,16-dioxo-1,2,3,5,6,7,8,9,10,11,13a,14,14a,15,16,16a-hexadecahydrocyclopropa[e]pyrrolo[1,2-a][1,4]diazacyclopentadecin-6-yl)carbamate] | < 5.46 | < 5.46 |  |  | 
11 | COc1ccc2c(O[C@@H]3C[C@H]4C(=O)N[C@]5(C(=O)NS(=O)(=O)C6(C)CC6)C[C@H]5/C=C\CC[C@@H](C)C[C@@H](C)[C@H](NC(=O)OC(C)(C)C)C(=O)N4C3)nc(-c3ccc(OC(C)C)nc3)cc2c1 [Compound 5223, tert-butyl ((2R,6S,7R,9R,13aS,14aR,16aS,Z)-2-((3-(6-isopropoxypyridin-3-yl)-6-methoxyisoquinolin-1-yl)oxy)-7,9-dimethyl-14a-(((1-methylcyclopropyl)sulfonyl)carbamoyl)-5,16-dioxo-1,2,3,5,6,7,8,9,10,11,13a,14,14a,15,16,16a-hexadecahydrocyclopropa[e]pyrrolo[1,2-a][1,4]diazacyclopentadecin-6-yl)carbamate] | < 5.46 | < 5.46 |  |  | 
12 | CC[C@@H]1C[C@H](C)CC/C=C\[C@@H]2C[C@@]2(C(=O)NS(=O)(=O)C2CC2)NC(=O)[C@@H]2C[C@@H](Oc3cc(OC)nc4cc(OC)ccc34)CN2C(=O)[C@H]1NC(=O)OC(C)(C)C(F)(F)F [Compound 1211] |  |  | 1.01 to 5 | 0.51 to 1 | 
13 | CC[C@@H]1C[C@H](C)CC/C=C\[C@@H]2C[C@@]2(C(=O)NS(=O)(=O)C2(C)CC2)NC(=O)[C@@H]2C[C@@H](Oc3nccc4cc(OC)c(F)cc34)CN2C(=O)[C@H]1NC(=O)C1(C(F)(F)F)CC1 [Compound 4331, (2R,6S,7R,9R,13aS,14aR,16aS,Z)-7-ethyl-2-((7-fluoro-6-methoxyisoquinolin-1-yl)oxy)-9-methyl-N-((1-methylcyclopropyl)sulfonyl)-5,16-dioxo-6-(1-(trifluoromethyl)cyclopropanecarboxamido)-1,2,3,5,6,7,8,9,10,11,13a,14,14a,15,16,16a-hexadecahydrocyclopropa[e]pyrrolo[1,2-a][1,4]diazacyclopentadecine-14a-carboxamide] | 1.01 to 5 | 0.51 to 1 |  |  | 
14 | [2H]C([2H])([2H])C(C)(OC(=O)N[C@@H]1C(=O)N2C[C@H](Oc3nnc(OC)c4ccccc34)C[C@H]2C(=O)N[C@]2(C(=O)NS(=O)(=O)C3(C)CC3)C[C@H]2/C=C\CC[C@H](C)C[C@H]1CC)C([2H])([2H])[2H] [Compound 5021] | 4.82 to 103 | < 5.46 |  |  | 
15 | CCOc1ccc2nc(C(F)(F)F)c(O[C@@H]3C[C@H]4C(=O)N[C@]5(C(=O)NS(=O)(=O)C6(C)CC6)C[C@H]5/C=C\CC[C@H](C)C[C@@H](C)[C@H](NC(=O)OC(C)(C)C(F)(F)F)C(=O)N4C3)nc2c1 [Compound 4349] |  |  | 5.01 to 35 | 1.01 to 5 | 
16 | COc1cc2nc(C(F)(F)F)c(OC)nc2cc1O[C@@H]1C[C@H]2C(=O)N[C@]3(C(=O)NS(=O)(=O)C4(C)CC4)C[C@H]3/C=C\CC[C@@H](C)C[C@@H](C)[C@H](NC(=O)OC(C)(C)C(F)(F)F)C(=O)N2C1 [Compound 4353] |  |  | 5.01 to 35 | 1.01 to 5 | 
